Several values for one entry are separate records, joined by “and”; a condition that tells them apart may be missing. Equal entries are not always repeated. Entries after “also recorded” stand apart in the source; their conditions may differ. Where two headings read alike, the source gives them in different places.
Assays:
[1] = tested on: TSPO A147T (polymorphism rs6971); settings: human polymorphism rs6971; cited from earlier work
[2] = tested on: TSPO R32G; parameters: method as in PMID 7808437; settings: cited from earlier work
[3] = tested on: TSPO R103A; parameters: method as in PMID 7808437; settings: cited from earlier work
[4] = tested on: TSPO W47 mutation; parameters: method as in PMID 7808437; settings: cited from earlier work
[5] = target: T1, rec-mTSPO Y34F/F100A (Mus musculus, UniProt P50637, F100A/Y34F); test: [3H]-PK 11195 saturation binding to rec-mTSPO reconstituted in proteoliposomes
T1 construct: His tag; made in house; host or cells: E. coli
Protocol: (§1) Mutations were performed using the QuikChange Site-Directed Mutagenesis kit (Stratagene, France) according to published protocols. In brief, miniprep pET-PBR plasmid double-strand DNA was used as a template. Synthetic oligonucleotide primer pairs containing a point mutation or deletion, each complementary to the opposing strand of the vector, were extended during temperature cycling by pfu DNA polymerase. The nicked vector DNAs containing the desired mutations were then transfected into E. coli.
(§2) SDS-solubilized mTSPO was reincorporated in proteoliposomes by mixing with SDS solubilized lipids (dimyristoyl phosphatidyl choline/dimyristoyl phosphatidyl ethanolamine, 9:1) at a lipid to protein ratio of 5 (w/w). The detergent was removed using Bio-Beads SM2 according to published protocols. Reconstitution was followed by combining the fluorescence and optical changes as previously described.
(§3) Proteoliposomes containing recombinant mTSPO were incubated with various concentrations of [^3H]-PK 11195 (SA, 83.5 Ci/mmol, Perkin Elmer SAS, Courtaboeuf, France) in phosphate buffer saline (PBS). The bound ligand was quantified by liquid scintillation spectrometry after filtration on Whatman Filters GF/C (Sigma-Aldrich, Saint Quentin Fallavier, France) according to published protocols. The Kd and Bmax values were determined by fitting the saturation curves with the following equation Ligand bound = (Bmax × Ligand)/(Kd + Ligand).

[6] = target: T2, rec-mTSPO Y34F (Mus musculus, UniProt P50637, Y34F); test: as above
T2 construct: His tag; made in house; host or cells: E. coli
Protocol: as §1, §2, §3

[7] = target: T3, rec-mTSPO Y34F/F99A (Mus musculus, UniProt P50637, F99A/Y34F); test: as above
T3 construct: His tag; made in house; host or cells: E. coli
Protocol: as §1, §2, §3

[8] = target: T4, rec-mTSPO ΔC-ter (153–169) (Mus musculus, UniProt P50637); test: as above
T4 construct: His tag; made in house; host or cells: E. coli
Protocol: as §1, §2, §3

[9] = target: T5, rec-mTSPO F100A (Mus musculus, UniProt P50637, F100A); test: as above
T5 construct: His tag; made in house; host or cells: E. coli
Protocol: as §1, §2, §3

[10] = target: T6, rec-mTSPO Y34S (Mus musculus, UniProt P50637, Y34S); test: as above
T6 construct: His tag; made in house; host or cells: E. coli
Protocol: as §1, §2, §3

[11] = target: T7, rec-mTSPO Δ41–51 (Mus musculus, UniProt P50637, DEL41-51); test: as above; settings: Δ41–50 as printed in Table 1
T7 construct: His tag; made in house; host or cells: E. coli
Protocol: as §1, §2, §3

[12] = tested on: TSPO2; parameters: method as in PMID 19729679; settings: paralogous TSPO2; cited from earlier work
[13] = tested on: mammalian TSPO ∆153-169; parameters: method as in Li et al. (1998); settings: bacterial protoplast, control = wild type, ref Li et al. (1998); cited from earlier work
[14] = tested on: mammalian TSPO ∆120-133; parameters: method as in Li et al. (1998); settings: bacterial protoplast, control = wild type, ref Li et al. (1998); cited from earlier work
[15] = tested on: mammalian TSPO ∆108-119; parameters: method as in Li et al. (1998); settings: bacterial protoplast, control = wild type, ref Li et al. (1998); cited from earlier work
[16] = tested on: TSPO V26T; parameters: method as in PMID 7808437; settings: cited from earlier work
[17] = tested on: mammalian TSPO ∆141-152; parameters: method as in Li et al. (1998); settings: bacterial protoplast, control = wild type, ref Li et al. (1998); cited from earlier work
[18] = target: T8, rec-mTSPO (Mus musculus, UniProt P50637); test: Limited trypsin digestion of rec-mTSPO solubilized in DPC; settings: DPC 0.1%, 30 °C, TSPO:trypsin 30:1; 100 µM PK 11195 and increasing concentrations
T8 construct: His tag; made in house; host or cells: E. coli BL21 DE3
Protocol: Proteolysis was performed by mixing rec-mTSPO (0.2 mg/mL) solubilized in DPC (0.1%) and a phosphate buffer (10 mM at pH 7.0) with protease at a TSPO:Trypsin ratio of 30:1 (w/w).

[19] = target: TSPO ∆2-20,158-169; parameters: method as in Farges et al. (1994); settings: yeast mitochondria, ref Farges et al. (1994), read-out: PK 11195 Kd; cited from earlier work
[20] = tested on: mammalian TSPO ∆41-51; parameters: method as in Li et al. (1998); settings: bacterial protoplast, control = wild type, ref Li et al. (1998); cited from earlier work
[21] = target: T9, rec-mTSPO WT (Mus musculus, UniProt P50637); test: [3H]-PK 11195 saturation binding to rec-mTSPO reconstituted in proteoliposomes
T9 construct: His tag; made in house; host or cells: E. coli BL21 DE3
Protocol: as §2, §3

[22] = tested on: mammalian TSPO ∆5-20; parameters: method as in Li et al. (1998); settings: bacterial protoplast, control = wild type, ref Li et al. (1998); cited from earlier work
[23] = tested on: TSPO K39G; parameters: method as in PMID 7808437; settings: cited from earlier work
[24] = tested on: human TSPO ∆15-35; settings: cited from earlier work
[25] = target: TSPO ∆157-169; parameters: method as in Farges et al. (1994); settings: yeast mitochondria, ref Farges et al. (1994), read-out: PK 11195 Kd; cited from earlier work
[26] = target: T8, rec-mTSPO; test: Circular dichroism of rec-mTSPO in DPC with PK 11195; settings: increasing amounts of PK 11195, high ligand over protein molar ratios
Protocol: Far UV circular dichroism spectra were recorded on a Jobin-Yvon CD6 spectropolarimeter operated at room temperature according to published protocols [19, 25, 45]. Briefly, a detergent solubilized mTSPO sample (5 µM) in a 10 mM sodium phosphate buffer solution was placed in a 0.2 mm path length quartz cuvette (Hellma, Paris, France). The CD spectra were recorded in the 185 to 270 nm wavelength range with a 0.2 nm step resolution, 1 s signal averaging time and 1 nm bandwidth. The spectra were averaged over five scans, corrected for background and smoothed over 25 points. A consensus secondary structure content was estimated by spectral deconvolution using CONTINLL, CDSSTR and Selcon software and datasets of reference proteins SMP50 (37 soluble proteins and 13 membrane proteins) and SP37 (37 soluble proteins) [46], as well as CDFriend.

[27] = target: T8, rec-mTSPO; settings: cited from earlier work
[28] = target: TSPO ∆2-20; parameters: method as in Farges et al. (1994); settings: yeast mitochondria, ref Farges et al. (1994), read-out: PK 11195 Kd; cited from earlier work
[29] = tested on: WT and mutants of TSPO reconstituted in liposomes; test: [3H]-PK 11195 saturation binding to rec-mTSPO reconstituted in proteoliposomes, all constructs; parameters: species or system mouse; settings: all stoichiometries obtained
Protocol: as §2, §3

[30] = target: TSPO ∆158-159; parameters: method as in Farges et al. (1994); settings: yeast mitochondria, ref Farges et al. (1994), read-out: PK 11195 Kd; cited from earlier work
[31] = target: TSPO ∆156-169; parameters: method as in Farges et al. (1994); settings: yeast mitochondria, ref Farges et al. (1994), read-out: PK 11195 Kd; cited from earlier work
[32] = target: TSPO Wild-type; parameters: method as in Farges et al. (1994); settings: yeast mitochondria, ref Farges et al. (1994), read-out: PK 11195 Kd; cited from earlier work
[33] = tested on: TSPO W42 mutation; parameters: method as in PMID 7808437; settings: cited from earlier work

CCC(C)N(C)C(=O)c1cc2ccccc2c(-c2ccccc2Cl)n1 (centres unmarked) [PK 11195, N-butan-2-yl-1-(2-chlorophenyl)-N-methylisoquinoline-3-carboxamide]
effect of A147T polymorphism on affinity [1]: no effect | effect of mutation on PK 11195 binding [2]: no effect | effect of mutation on PK 11195 binding [3]: no effect | effect of mutation on PK 11195 binding [4]: no effect | decrease in affinity for PK 11195 compared with WT ([5]; Y34F/F100A vs WT): 20 fold | Bmax ([5]; Y34F/F100A, proteoliposomes): 25 ± 10 nmol/mg | Kd ([5]; Y34F/F100A, proteoliposomes): 150 ± 20 nM | Bmax [6]: 27 ± 3 nmol/mg | Kd [6]: 20 ± 3 nM | decrease in affinity for PK 11195 compared with WT ([7]; Y34F/F99A vs WT): 20 fold | Bmax ([7]; Y34F/F99A, proteoliposomes): 25 ± 10 nmol/mg | Kd ([7]; Y34F/F99A, proteoliposomes): 150 ± 20 nM | Bmax [8]: 30 ± 10 nmol/mg | Kd [8]: 20 ± 5 nM | Bmax [9]: 25 ± 7 nmol/mg | Kd [9]: 20 ± 5 nM | Bmax [10]: 25 ± 5 nmol/mg | Kd [10]: 40 ± 7 nM | Bmax [11]: 25 ± 8 nmol/mg | Kd [11]: 20 ± 8 nM | binding to TSPO2 [12]: not binding | PK 11195 binding % of control [13]: ~ 75 % of control and 75 % of control | PK 11195 binding % of control [14]: ~ 55 % of control | PK 11195 binding % of control [15]: ~ 70 % of control | effect of mutation on PK 11195 binding [16]: complete loss of PK 11195 binding | PK 11195 binding % of control [17]: ~ 75 % of control | effect on proteolytic cleavage of rec-mTSPO by trypsin [18]: protected against cleavage | Kd [19]: > 200 nM | PK 11195 binding % of control [20]: ~ 55 % of control and 55 % of control | Kd ([21]; proteoliposomes, fit of saturation curve): 8 ± 3 nM | Bmax ([21]; stoichiometry, nmol PK 11195 bound per mg recombinant TSPO): 25 ± 3 nmol/mg | PK 11195 binding % of control [22]: ~ 70 % of control | effect of mutation on PK 11195 binding [23]: no effect | effect of deletion on PK 11195 binding ([24]; Δ15–35 of human TSPO overexpressed in yeast): complete loss of PK 11195 binding; also recorded: loses its binding capacity | Kd ([24]; ∆15-35, yeast mitochondria, ref Farges et al. (1994), read-out: PK 11195 Kd): > 200 nM | Kd [25]: 9 ± 3 nM | effect on CD spectrum of rec-mTSPO [26]: increasing changes in the CD spectrum | PK 11195 binding in detergent ([27]; SDS-solubilized rec-mTSPO): no PK 11195 binding | affinity with detergent-solubilized rec-mTSPO ([27]; detergent-solubilized, additional interaction between PK 11195 and detergent): micro-millimolar range | PK 11195 binding in detergent ([27]; rec-mTSPO in the presence of DPC): observed | Kd [28]: 25 ± 8 nM | stoichiometry (Bmax) [29]: 25–30 nmol of PK 11195 bound per mg of recombinant TSPO | Kd [30]: 10 ± 6 nM | Kd [31]: 10 ± 4 nM | Kd [32]: 6 ± 3 nM | effect of mutation on PK 11195 binding [33]: no effect

COc1ccccc1CN(C(C)=O)c1cnccc1Oc1ccccc1 [PBR28]
decrease of the affinity due to A147T polymorphism [1]: one or two orders of magnitude

— publication PMC6470738, “Characterization of the High-Affinity Drug Ligand Binding Site of Mouse Recombinant TSPO” (International Journal of Molecular Sciences, 2019)
